Source: US7741327B2 (Hoffmann-La Roche Inc., priority 2008, dated 2010)

Molecular target: T1, Recombinant human liver GK1 (GST-GK) (Homo sapiens, UniProt P35557)
T1 construct: made in house; host or cells: E. coli
T1 sequence (P35557 1-466 isoform P35557-2): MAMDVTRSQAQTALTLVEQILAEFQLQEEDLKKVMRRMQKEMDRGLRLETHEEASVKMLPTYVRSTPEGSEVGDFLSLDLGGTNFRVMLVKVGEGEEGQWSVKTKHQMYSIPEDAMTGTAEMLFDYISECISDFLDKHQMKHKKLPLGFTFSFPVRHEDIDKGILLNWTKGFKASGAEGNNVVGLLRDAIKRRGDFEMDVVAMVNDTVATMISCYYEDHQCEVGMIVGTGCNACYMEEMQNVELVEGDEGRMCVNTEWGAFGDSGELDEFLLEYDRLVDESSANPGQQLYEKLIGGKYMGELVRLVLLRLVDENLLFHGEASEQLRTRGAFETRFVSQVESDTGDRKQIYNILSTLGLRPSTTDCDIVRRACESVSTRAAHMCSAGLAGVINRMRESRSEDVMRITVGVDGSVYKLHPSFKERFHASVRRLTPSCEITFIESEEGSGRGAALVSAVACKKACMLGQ
Assay: In vitro glucokinase activity (G6PDH-coupled NADH assay)
Assay type: biochemical
Settings: 30° C., 5 mM D-glucose, 10% DMSO
Outline: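 Activation measured as the rate of OD340 rise from G6PDH-coupled NADH production, relative to 10% DMSO control, reported as SC1.5 (concentration for 50% activity increase). Conditions: 30° C, pH 7.1 Hepes, 5 mM glucose, 1 mM ATP, purified recombinant GST-human GK1, compound preincubated 10 min before enzyme addition.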

Row | Structure (SMILES) | SC1.5 (concentration of activator that produced a 50% increase in the activity of GK)
1 | Cc1ccccc1OC1=CC(=O)N([C@@H](CC(C)C)C(=O)Nc2ccn(CC(C)(C)O)n2)C1 [Example 125, (S)-4-Methyl-2-(2-oxo-4-o-tolyloxy-2,5-dihydro-pyrrol-1-yl)-pentanoic acid [1-(2-hydroxy-2-methyl-propyl)-1H-pyrazol-3-yl]-amide] | 0.252 µM
2 | CC(C)C[C@@H](C(=O)Nc1ccn(CC(C)(C)O)n1)N1CC(Oc2cccc(O)c2F)=CC1=O [Example 126, (S)-2-[4-(2-Fluoro-3-hydroxy-phenoxy)-2-oxo-2,5-dihydro-pyrrol-1-yl]-4-methyl-pentanoic acid [1-(2-hydroxy-2-methyl-propyl)-1H-pyrazol-3-yl]-amide] | 0.182 µM
3 | CC(C)OC1=CC(=O)N([C@@H](CC2CCCCC2)C(=O)Nc2ccn(CC(C)(C)O)n2)C1 [Example 25, (S)-3-Cyclohexyl-N-[1-(2-hydroxy-2-methyl-propyl)-1H-pyrazol-3-yl]-2-(4-isopropoxy-2-oxo-2,5-dihydro-pyrrol-1-yl)-propionamide] | 1.872 µM
4 | COC1=CC(=O)N([C@@H](CC2CCCC2)C(=O)Nc2ncc(Cl)s2)C1 [Example 2, (S)-N-(5-Chloro-thiazol-2-yl)-3-cyclopentyl-2-(4-methoxy-2-oxo-2,5-dihydro-pyrrol-1-yl)-propionamide] | 1.672 µM
5 | COC(C)(C)Cn1ccc(NC(=O)[C@H](CC2CCCC2)N2CC(OC(C)C)=CC2=O)n1 [Example 22, (S)-3-Cyclopentyl-N-[1-(2-methoxy-2-methyl-propyl)-1H-pyrazol-3-yl]-2-(4-isopropoxy-2-oxo-2,5-dihydro-pyrrol-1-yl)-propionamide] | 1.048 µM
6 | CC(C)(O)Cn1ccc(NC(=O)[C@H](CC2CCCCC2)N2CC(Oc3ccccc3Cl)=CC2=O)n1 [Example 61, (S)-2-[4-(2-Chloro-phenoxy)-2-oxo-2,5-dihydro-pyrrol-1-yl]-3-cyclohexyl-N-[1-(2-hydroxy-2-methyl-propyl)-1-H-pyrazol-3-yl]-propionamide] | 0.006 µM
7 | COCc1nsc(NC(=O)[C@H](CC(C)C)N2CC(Oc3ccccc3Cl)=CC2=O)n1 [Example 112, (S)-2-[4-(2-Chloro-phenoxy)-2-oxo-2,5-dihydro-pyrrol-1-yl]-4-methyl-pentanoic acid (3-methoxymethyl-[1,2,4]thiadiazol-5-yl)-amide] | 2.26 µM
8 | COc1cccc(OC2=CC(=O)N([C@H](CC3CCOCC3)C(=O)Nc3ccn(CC(C)(C)O)n3)C2)c1Cl [Example 52, (R)-2-[4-(2-Chloro-3-methoxy-phenoxy)-2-oxo-2,5-dihydro-pyrrol-1-yl]-N-[1-(2-hydroxy-2-methyl-propyl)-1H-pyrazol-3-yl]-3-(tetrahydro-pyran-4-yl)-propionamide] | 1.027 µM
9 | COC1=CC(=O)N([C@@H](CC2CCCC2)C(=O)Nc2nc3ccccc3s2)C1 [Example 3, (S)-N-Benzothiazol-2-yl-3-cyclopentyl-2-(4-methoxy-2-oxo-2,5-dihydro-pyrrol-1-yl)-propionamide] | > 30 µM
10 | CC(=O)Cc1nsc(NC(=O)[C@H](CC(C)C)N2CC(Oc3ccccc3Cl)=CC2=O)n1 [Example 113, (S)-2-[4-(2-Chloro-phenoxy)-2-oxo-2,5-dihydro-pyrrol-1-yl]-4-methyl-pentanoic acid [3-(2-oxo-propyl)-[1,2,4]thiadiazol-5-yl]-amide] | 1.737 µM
11 | CNC(=O)NC(=O)C(CC1CCCCC1)N1CC(Oc2cccc(OC)c2Cl)=CC1=O (stereo not drawn) [Example 58, 1-{2-[4-(2-Chloro-3-methoxy-phenoxy)-2-oxo-2,5-dihydro-pyrrol-1-yl]-3-cyclohexyl-propionyl}-3-methyl-urea] | 1.597 µM

Results, then the compound that gave them:

Row | SC1.5 (concentration of activator that produced a 50% increase in the activity of GK) | Structure (SMILES)
12 | 0.437 µM | CC(C)C[C@@H](C(=O)Nc1ccn(C[C@@H](O)CO)n1)N1CC(Oc2ccc3c(c2)OCCO3)=CC1=O [Example 168, (S)-2-[4-(2,3-dihydro-benzo[1,4]dioxin-6-yloxy)-2-oxo-2,5-dihydro-pyrrol-1-yl]-4-methyl-pentanoic acid [1-((R)-2,3-dihydroxy-propyl)-1H-pyrazol-3-yl]-amide]
13 | 0.066 µM | CC(C)C[C@@H](C(=O)Nc1ccn(CC(C)(C)O)n1)N1CC(Oc2c(F)ccc(OC(C)C)c2F)=CC1=O [Example 135, (S)-2-[4-(2,6-Difluoro-3-isopropoxy-phenoxy)-2-oxo-2,5-dihydro-pyrrol-1-yl]-4-methyl-pentanoic acid [1-(2-hydroxy-2-methyl-propyl)-1H-pyrazol-3-yl]-amide]
14 | 0.406 µM | CC(C)C[C@@H](C(=O)Nc1ccn(CC(N)=O)n1)N1CC(Oc2cccc(C3CC3)c2F)=CC1=O [Example 156, (S)-2-[4-(3-Cyclopropyl-2-fluoro-phenoxy)-2-oxo-2,5-dihydro-pyrrol-1-yl]-4-methyl-pentanoic acid (1-carbamoylmethyl-1H-pyrazol-3-yl)-amide]
15 | 15.278 µM | O=C(Nc1ccn(C[C@@H](O)CO)n1)[C@H](CCO)N1CC(Oc2ccccc2Cl)=CC1=O [Example 222, (S)-2-[4-(2-Chloro-phenoxy)-2-oxo-2,5-dihydro-pyrrol-1-yl]-N-[1-((R)-2,3-dihydroxy-propyl)-1H-pyrazol-3-yl]-4-hydroxy-butyramide]
16 | 1.969 µM | CC(C)C[C@@H](C(=O)Nc1ccn(C[C@@H]2COC(C)(C)O2)n1)N1CC(Oc2cccc(CC(C)(C)O)c2)=CC1=O [Example 237, (S)-2-{4-[3-(2-Hydroxy-2-methyl-propyl)-phenoxy]-2-oxo-2,5-dihydro-pyrrol-1-yl}-4-methyl-pentanoic acid [1-((R)-2,2-dimethyl-[1,3]dioxolan-4-ylmethyl)-1H-pyrazol-3-yl]-amide]
17 | 0.012 µM | COc1cccc(OC2=CC(=O)N([C@@H](CC3CCCCC3)C(=O)Nc3ccn(C[C@@H](O)CO)n3)C2)c1 [Example 164, (S)-3-Cyclohexyl-N-[1-((R)-2,3-dihydroxy-propyl)-1H-pyrazol-3-yl]-2-[4-(3-methoxy-phenoxy)-2-oxo-2,5-dihydro-pyrrol-1-yl]-propionamide]
18 | 0.894 µM | O=C(Nc1ccn(C[C@@H](O)CO)n1)[C@H](Cc1ccccc1Cl)N1CC(Oc2ccccc2Cl)=CC1=O [Example 189, (S)-2-[4-(2-chloro-phenoxy)-2-oxo-2,5-dihydro-pyrrol-1-yl]-N-[1-((R)-2,3-dihydroxy-propyl)-1H-pyrazol-3-yl]-3-(2-chlorophenyl)-propionamide]
19 | 3.036 µM | CC(C)C[C@@H](C(=O)Nc1ccn(CC(C)(C)O)n1)N1CC(Oc2cccc3ocnc23)=CC1=O [Example 242, (S)-2-[4-(Benzooxazol-4-yloxy)-2-oxo-2,5-dihydro-pyrrol-1-yl]-4-methyl-pentanoic acid [1-(2-hydroxy-2-methyl-propyl)-1H-pyrazol-3-yl]-amide]
20 | 2.061 µM | CC(C)C[C@@H](C(=O)Nc1ccn(C)n1)N1CC(Oc2cccc(CC(C)(C)O)c2)=CC1=O [Example 235, (S)-2-{4-[3-(2-Hydroxy-2-methyl-propyl)-phenoxy]-2-oxo-2,5-dihydro-pyrrol-1-yl}-4-methyl-pentanoic acid (1-methyl-1H-pyrazol-3-yl)-amide]
21 | 0.516 µM | CC(C)C[C@@H](C(=O)Nc1ccn(C[C@@H]2COC(C)(C)O2)n1)N1CC(Oc2cccc(N3CCCC3)c2F)=CC1=O [Example 141, (S)-2-[4-(2-Fluoro-3-pyrrolidin-1-yl-phenoxy)-2-oxo-2,5-dihydro-pyrrol-1-yl]-4-methyl-pentanoic acid [1-((R)-2,2-dimethyl-[1,3]dioxolan-4-yl-methyl)-1H-pyrazol-3-yl]-amide]
22 | 0.048 µM | CC[C@@H](C)C[C@@H](C(=O)Nc1ccn(C[C@@H](O)CO)n1)N1CC(Oc2ccccc2Cl)=CC1=O [Example 255, (2S,4R)-2-[4-(2-Chloro-phenoxy)-2-oxo-2,5-dihydro-pyrrol-1-yl]-4-methyl-hexanoic acid [1-((R)-2,3-dihydroxy-propyl)-1H-pyrazol-3-yl]-amide]
23 | 0.076 µM | CC(C)(O)Cn1ccc(NC(=O)[C@H](CC2CCCCC2)N2CC(Oc3cccc(C(F)(F)F)c3)=CC2=O)n1 [Example 209, (S)-3-cyclohexyl-N-[1-(2-hydroxy-2-methyl-propyl)-1H-pyrazol-3-yl]-2-[2-oxo-4-(3-trifluoromethyl-phenoxy)-2,5-dihydro-pyrrol-1-yl]-propionamide]

Same assay, conditions: at 30 μM test compound

Row | fold act. @ 30 μM | Structure (SMILES)
24 | 1.3 fold | COC1=CC(=O)N([C@@H](CC2CCCC2)C(=O)Nc2nc3ccccc3s2)C1 [Example 3, (S)-N-Benzothiazol-2-yl-3-cyclopentyl-2-(4-methoxy-2-oxo-2,5-dihydro-pyrrol-1-yl)-propionamide]
